# Measured values taken from ChEMBL document CHEMBL1201862, “PubChem BioAssay data set” (2004).
#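 Dose response: 5 concentrations. Exposure: 48 h. Format: 96-well plates. Endpoint: linear interpolation; highest concentration if not reached. GI50 is the concentration that inhibits growth by half.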 Activity calls are given as the source filed them. Cut-off read from the data, not from the text of the source: active = GI50 up to about 1.1 µM and inactive = higher.
# Legend:
# Assay in all cases: NCI-60 cell line screen, 48 h
# BT-549 = test system: BT-549
# DMS-114 = test system: DMS-114
# KM-20L2 = test system: KM-20L2
# DLD-1 = test system: DLD-1
# LXFL 529 = test system: LXFL 529
# SNB-78 = test system: SNB-78
# RXF 631 = test system: RXF 631
# XF498 = test system: XF498
# HOP-18 = test system: HOP-18
smiles,measurement,setting,value
CCn1c2c(c3ccccc3c1=O)C(=O)c1ccccc1-2,GI50,BT-549,> 100 µM (inactive)
CN(C)c1ccc(-c2cc(O)c3ccccc3n2)cc1,GI50,DMS-114,> 100 µM (inactive)
same,GI50,KM-20L2,> 100 µM (inactive)
same,GI50,DLD-1,> 100 µM (inactive)
same,GI50,LXFL 529,> 100 µM (inactive)
same,GI50,SNB-78,> 100 µM (inactive)
Cc1c2c(nc3ccccc13)C(=O)c1cccnc1C2=O,GI50,BT-549,61.8 µM (inactive)
CCNC(=O)N(CC)CN(CC)C(=O)NCC,GI50,DMS-114,> 100 µM (inactive)
same,GI50,KM-20L2,> 100 µM (inactive)
same,GI50,RXF 631,> 100 µM (inactive)
same,GI50,DLD-1,> 100 µM (inactive)
same,GI50,XF498,> 100 µM (inactive)
same,GI50,LXFL 529,> 100 µM (inactive)
same,GI50,SNB-78,> 100 µM (inactive)
NC(=O)NNc1nc2ccccc2c(=O)n1NC(=O)C(=O)Nc1ccc(Cl)cc1Cl,GI50,BT-549,> 100 µM (inactive)
CCC1C(=O)OCc2c1cc1n(c2=O)Cc2cc3ccccc3nc2-1 (stereo not drawn),GI50,BT-549,4.38 µM (inactive)
S=C(Nc1cccc(Cl)c1)Nc1ccccn1,GI50,BT-549,> 100 µM (inactive)
Cc1ccccc1C1=[N+]([O-])c2ccccc2C1=O,GI50,DMS-114,13.4 µM (inactive)
same,GI50,KM-20L2,17.9 µM (inactive)
same,GI50,HOP-18,19.6 µM (inactive)
same,GI50,RXF 631,23.6 µM (inactive)
same,GI50,DLD-1,17.3 µM (inactive)
same,GI50,XF498,17.4 µM (inactive)
same,GI50,LXFL 529,14.9 µM (inactive)
COC(=O)NCCc1n[nH]c2c1C(=O)C=C(N1CCOCC1)C2=O,GI50,BT-549,> 100 µM (inactive)
COc1ccc(C(O)(c2ccccc2)c2nccc3ccccc23)cc1 (stereo not drawn),GI50,BT-549,8.41 µM (inactive)
CCN1/C(=C/C#C/C(C)=C\c2sc3ccc(Cl)cc3[n+]2CC)Sc2ccc(Cl)cc21,GI50,BT-549,2.14 µM (inactive)
Cc1ccc2c(ccc(/C=C/c3ccc(O)c4ncccc34)[n+]2C)c1,GI50,DMS-114,0.489 µM (active)
same,GI50,KM-20L2,4.85 µM (inactive)
same,GI50,HOP-18,13.1 µM (inactive)
same,GI50,DLD-1,2.72 µM (inactive)
same,GI50,XF498,3.19 µM (inactive)
same,GI50,LXFL 529,1.16 µM (inactive)
same,GI50,SNB-78,9.77 µM (inactive)
CC1(C)CCCCCCCCCC2CC2CCC(C)(C)C1=O (stereo not drawn),GI50,BT-549,34.4 µM (inactive)
C=CCN1CCC(O)(c2cc(C(=O)OCC)[nH]c2-c2cc(C)no2)C1 (stereo not drawn),GI50,BT-549,> 100 µM (inactive)
COC(=O)c1c(C#C[Si](C)(C)C)c(C#C[Si](C)(C)C)c(C#C[Si](C)(C)C)c(C#C[Si](C)(C)C)c1C(=O)OC,GI50,BT-549,> 100 µM (inactive)
C=CCC1(CN(C)C)CC/C(=C\c2cc(OC)c(OC)c(OC)c2)C1=O (stereo not drawn),GI50,DMS-114,18.6 µM (inactive)
same,GI50,KM-20L2,22 µM (inactive)
same,GI50,HOP-18,22.3 µM (inactive)
same,GI50,RXF 631,25.6 µM (inactive)
same,GI50,DLD-1,20 µM (inactive)
same,GI50,LXFL 529,17.9 µM (inactive)
same,GI50,SNB-78,28.1 µM (inactive)
CC(=O)NC1C(OCc2ccccc2)OC(CO)C(O)C1OCC(=O)N[C@@H](C)C(=O)N[C@H](CCC(=O)NCCNc1ccc([N+](=O)[O-])c2[nH]c3ccccc3c(=O)c12)C(N)=O (stereo partly drawn),GI50,BT-549,20.1 µM (inactive)
Cc1nc(N)c(N2CCN(Cc3ccccc3)CC2)c(O)n1,GI50,BT-549,> 100 µM (inactive)
Cn1c(-c2cccs2)cc(-c2ccsc2)c1-c1cccs1,GI50,BT-549,> 100 µM (inactive)
O=C1CCCCC1C(O)(C(F)(F)F)C(F)(F)Cl (stereo not drawn),GI50,BT-549,> 10 µM (inactive)
CC(=O)OCC1OC(OC(C)=O)C(NC#N)C(OC(C)=O)C1OC(C)=O (stereo not drawn),GI50,DMS-114,> 100 µM (inactive)
same,GI50,HOP-18,> 100 µM (inactive)
same,GI50,DLD-1,> 100 µM (inactive)
same,GI50,LXFL 529,67.9 µM (inactive)
COc1ccc(C2C3=C(COC3=O)Oc3cc4c(cc32)OCO4)cc1 (stereo not drawn),GI50,DMS-114,4.3 µM (inactive)
same,GI50,KM-20L2,11.9 µM (inactive)
same,GI50,HOP-18,18.6 µM (inactive)
same,GI50,DLD-1,15.4 µM (inactive)
same,GI50,XF498,7.18 µM (inactive)
same,GI50,SNB-78,16.6 µM (inactive)
CC(C)(C)OC(=O)N(CCCCNC(=O)OCc1ccccc1)CCCNC(=O)OCc1ccccc1,GI50,BT-549,53 µM (inactive)
N#CC(Cc1ccccc1)N(CCC1=CCCCC1)C(c1ccccc1)c1ccccc1 (stereo not drawn),GI50,BT-549,> 100 µM (inactive)
COc1cc(S(=O)(=O)Nc2ccc(-c3csc(N4C(=O)C(Cl)C4c4cccs4)n3)cc2)ccc1Cl (stereo not drawn),GI50,BT-549,87.7 µM (inactive)
O=C(O)CCC(=O)OC1N=C(c2ccccc2Cl)c2cc([N+](=O)[O-])ccc2NC1=O (stereo not drawn),GI50,BT-549,89.1 µM (inactive)
Cc1oc2c(C)c(O)c3c(c2c1C1(C)OCCO1)C(=O)C=C(Cl)C3=O,GI50,KM-20L2,> 100 µM (inactive)
same,GI50,RXF 631,> 100 µM (inactive)
same,GI50,XF498,33.3 µM (inactive)
same,GI50,LXFL 529,> 100 µM (inactive)
same,GI50,SNB-78,> 100 µM (inactive)
OCC1OC(c2scc3c(=S)[nH]cnc23)C(O)C1O (stereo not drawn),GI50,BT-549,27.5 µM (inactive)
CC1(C)CCCCCC(C)(CCCO)C1=O (stereo not drawn),GI50,BT-549,> 100 µM (inactive)
CCCCCCCCCCC[N+]1(Cc2ccccc2)CC2CCN(Cc3ccccc3)CC2C1 (stereo not drawn),GI50,BT-549,0.305 µM (active)
Cc1cc(N(CCC#N)CCC#N)ccc1/N=N/c1cccc(Cl)c1,GI50,DMS-114,31.8 µM (inactive)
same,GI50,KM-20L2,> 100 µM (inactive)
same,GI50,SNB-78,> 100 µM (inactive)
CN(C)CCN(C)C(=O)C1CCCN1C(=O)OCc1ccccc1 (stereo not drawn),GI50,DMS-114,> 100 µM (inactive)
same,GI50,KM-20L2,> 100 µM (inactive)
same,GI50,DLD-1,71.3 µM (inactive)
same,GI50,XF498,> 100 µM (inactive)
same,GI50,LXFL 529,> 100 µM (inactive)
same,GI50,SNB-78,> 100 µM (inactive)
O=C(c1ccccc1)c1c(C(=O)c2ccccc2)c(-c2ccccc2)c2c(-c3ccccc3)sc(-c3ccccc3)c2c1-c1ccccc1,GI50,DMS-114,> 100 µM (inactive)
same,GI50,KM-20L2,> 100 µM (inactive)
same,GI50,RXF 631,> 100 µM (inactive)
same,GI50,DLD-1,> 100 µM (inactive)
same,GI50,XF498,> 100 µM (inactive)
same,GI50,LXFL 529,> 100 µM (inactive)
same,GI50,SNB-78,> 100 µM (inactive)
CCOC(=O)/C=C(/C(=O)OCC)n1cc(C)c(=O)n(Cc2cnnn2COCCOC(C)=O)c1=O,GI50,BT-549,17.5 µM (inactive)
Cc1cccc2cc3c(ccc4ccccc43)c[n+]12,GI50,BT-549,7.08 µM (inactive)
